Results as given in patent publication US9120756B2, “Substituted phenylureas and phenylamides as vanilloid receptor ligands” (Gruenenthal GmbH, priority 2009, dated 2015).

What was measured:
Type in all cases: cell-based
hVR1 [1] = target: T1, hVR1 (Homo sapiens (Human), UniProt Q8NER1); experiment: FLIPR assay hVR1, after pH stimulus; parameters: key to IC50 (human being) hVR1 pH: result in words (NE / AG): AG=agonist; pAG=partial agonist; NE=no effect; details: for inhibition at 10 µM: read-out: IC50 (human being) hVR1 pH: inhibition (as a percentage) @ 10 μM, inhibition determined at 10 μM; for IC50: read-out: IC50 (human being) hVR1 [nM], pH
Description: (§1) In this assay, the influx of Ca^2+ through the channel is quantified with the aid of a Ca^2+-sensitive dye (type Fluo-4, Molecular Probes Europe BV, Leiden, the Netherlands) in a fluorescent imaging plate reader (FLIPR, Molecular Devices, Sunnyvale, USA). Chinese hamster ovary cells (CHO K1 cells, European Collection of Cell Cultures (ECACC) United Kingdom) are stably transfected with the VR1 gene. For functional testing, these cells are plated out on poly-D-lysine-coated black 96-well plates having a clear base (BD Biosciences, Heidelberg, Germany) at a density of 25,000 cells/well. […] Subsequently, the plates are washed three times with HBSS buffer and after further incubation for 15 minutes at RT used for Ca^2+ measurement in a FLIPR assay. […] Quantification is carried out by measuring the highest fluorescence intensity (FC, fluorescence counts) over time. The FLIPR protocol consists of 2 substance additions. […] Desensitising agonists and antagonists led to suppression of the Ca^2+ influx. […] Ki values for the test substances were obtained by conversion by means of the Cheng-Prusoff equation (Cheng, Prusoff; Biochem. Pharmacol. 22, 3099-3108, 1973).

hVR1 [2] = target: T1, hVR1; experiment: FLIPR Ca2+ influx assay on CHO K1 cells transfected with the VR1 gene, capsaicin stimulus (method II); parameters: key to Ki (human being) Cap: result in words (NE / AG): AG=agonist; pAG=partial agonist; NE=no effect; details: for Ki: capsaicin (Cap), read-out: Ki (human being) [nM] Cap
hVR1 [3] = target: T1, hVR1; experiment: FLIPR assay human VR1, 45° C. stimulus; parameters: key to IC50 (human being) 45° C. column: result in words (AG): AG=agonist; pAG=partial agonist; NE=no effect; details: for IC50: read-out: IC50 (human being) [nM], 45° C.
Description: The agonistic or antagonistic effect of the substances to be tested on the vanilloid receptor 1 (VR1) can also be determined using the following assay. In this assay, the influx of Ca^2+ through the channel is quantified with the aid of a Ca^2+-sensitive dye (type Fluo-4, Molecular Probes Europe BV, Leiden, the Netherlands) in a fluorescent imaging plate reader (FLIPR, Molecular Devices, Sunnyvale, USA).
Chinese hamster ovary cells (CHO K1 cells, European Collection of Cell Cultures (ECACC) United Kingdom) are stably transfected with the VR1 gene. For functional testing, these cells are plated out on poly-D-lysine-coated black 96-well plates having a clear base (BD Biosciences, Heidelberg, Germany) at a density of 25,000 cells/well. The cells are incubated overnight at 37° C. and 5% CO2 in a culture medium (Ham's F12 nutrient mixture, 10% by volume of FCS (foetal calf serum), 18 μg/ml of L-proline). The next day the cells are incubated with Fluo-4 (Fluo-4 2 μM, 0.01% by volume of Pluronic F127, Molecular Probes in HBSS (Hank's buffered saline solution), Gibco Invitrogen GmbH, Karlsruhe, Germany) for 30 minutes at 37° C. Subsequently, the plates are washed three times with HBSS buffer and after further incubation for 15 minutes at RT used for Ca^2+ measurement in a FLIPR assay. The Ca^2+-dependent fluorescence is measured before and after the addition of the substances to be tested (λex wavelength=488 nm, λem=540 nm). Quantification is carried out by measuring the highest fluorescence intensity (FC, fluorescence counts) over time.
The FLIPR protocol consists of 2 substance additions. […]
Desensitising agonists and antagonists led to suppression of the Ca^2+ influx.
Ki values for the test substances were obtained by conversion by means of the Cheng-Prusoff equation (Cheng, Prusoff; Biochem. Pharmacol. 22, 3099-3108, 1973).

[4] = target: rat-species vanilloid receptor 1 (VR1/TRPV1) (Rattus norvegicus (Rat), UniProt O35433); experiment: FLIPR Ca2+ influx assay on rat dorsal root ganglia cells, capsaicin stimulus (method I); details: for Ki: capsaicin (Cap)
Description: The agonistic or antagonistic effect of the substances to be tested on the rat-species vanilloid receptor 1 (VR1/TRPV1) can be determined using the following assay. In this assay, the influx of Ca^2+ through the receptor channel is quantified with the aid of a Ca^2+-sensitive dye (type Fluo-4, Molecular Probes Europe BV, Leiden, the Netherlands) in a fluorescent imaging plate reader (FLIPR, Molecular Devices, Sunnyvale, USA).
Complete medium: 50 ml HAMS F12 nutrient mixture (Gibco Invitrogen GmbH, Karlsruhe, Germany) with
10% by volume of FCS (foetal calf serum, Gibco Invitrogen GmbH, Karlsruhe, Germany, heat-inactivated);
2 mM L-glutamine (Sigma, Munich, Germany);
1% by weight of AA solution (antibiotic/antimyotic solution, PAA, Pasching, Austria) and 25 ng/ml NGF medium (2.5 S, Gibco Invitrogen GmbH, Karlsruhe, Germany)
Cell culture plate: Poly-D-lysine-coated, black 96-well plates having a clear base (96-well black/clear plate, BD Biosciences, Heidelberg, Germany) are additionally coated with laminin (Gibco Invitrogen GmbH, Karlsruhe, Germany), the laminin being diluted with PBS (Ca—Mg-free PBS, Gibco Invitrogen GmbH, Karlsruhe, Germany) to a concentration of 100 μg/ml. Aliquots having a laminin concentration of 100 μg/ml are removed and stored at −20° C. The aliquots are diluted with PBS in a ratio of 1:10 to 10 μg/ml of laminin and respectively 50 μL of the solution are pipetted into a recess in the cell culture plate. The cell culture plates are incubated for at least two hours at 37° C., the excess solution is removed by suction and the recesses are each washed twice with PBS. The coated cell culture plates are stored with excess PBS which is not removed until just before the feeding of the cells.
The vertebral column is removed from decapitated rats and placed immediately into cold HBSS buffer (Hank's buffered saline solution, Gibco Invitrogen GmbH, Karlsruhe, Germany), i.e. buffer located in an ice bath, mixed with 1% by volume (percent by volume) of an AA solution (antibiotic/antimyotic solution, PAA, Pasching, Austria). The vertebral column is cut longitudinally and removed together with fasciae from the vertebral canal. Subsequently, the dorsal root ganglia (DRG) are removed and again stored in cold HBSS buffer mixed with 1% by volume of an AA solution. The DRG, from which all blood remnants and spinal nerves have been removed, are transferred in each case to 500 μL of cold type 2 collagenase (PAA, Pasching, Austria) and incubated for 35 minutes at 37° C. After the addition of 2.5% by volume of trypsin (PAA, Pasching, Austria), incubation is continued for 10 minutes at 37° C. After complete incubation, the enzyme solution is carefully pipetted off and 500 μL of complete medium are added to each of the remaining DRG. […] The contents of each Falcon tube are respectively filtered through a 70 μm Falcon filter element and centrifuged for 10 minutes at 1,200 rpm and RT. The resulting pellet is respectively taken up in 250 μL of complete medium and the cell count is determined.
The number of cells in the suspension is set to 3×10^5 per ml and 150 μL of this suspension are in each case introduced into a recess in the cell culture plates coated as described hereinbefore. […] Subsequently, the cells are loaded with 2 μM of Fluo-4 and 0.01% by volume of Pluronic F127 (Molecular Probes Europe BV, Leiden, the Netherlands) in HBSS buffer (Hank's buffered saline solution, Gibco Invitrogen GmbH, Karlsruhe, Germany) for 30 min at 37° C., washed 3 times with HBSS buffer and after further incubation for 15 minutes at RT used for Ca^2+ measurement in a FLIPR assay. The Ca^2+-dependent fluorescence is in this case measured before and after the addition of substances (λex=488 nm, λem=540 nm). Quantification is carried out by measuring the highest fluorescence intensity (FC, fluorescence counts) over time.
The FLIPR protocol consists of 2 substance additions.

hVR1 [5] = target: T1, hVR1; experiment: FLIPR assay human VR1, NADA (N-arachidonoyl dopamine) stimulus; parameters: key: AG=agonist; pAG=partial agonist; NE=no effect
Description: as §1

T1 sequence (Q8NER1 whole entry): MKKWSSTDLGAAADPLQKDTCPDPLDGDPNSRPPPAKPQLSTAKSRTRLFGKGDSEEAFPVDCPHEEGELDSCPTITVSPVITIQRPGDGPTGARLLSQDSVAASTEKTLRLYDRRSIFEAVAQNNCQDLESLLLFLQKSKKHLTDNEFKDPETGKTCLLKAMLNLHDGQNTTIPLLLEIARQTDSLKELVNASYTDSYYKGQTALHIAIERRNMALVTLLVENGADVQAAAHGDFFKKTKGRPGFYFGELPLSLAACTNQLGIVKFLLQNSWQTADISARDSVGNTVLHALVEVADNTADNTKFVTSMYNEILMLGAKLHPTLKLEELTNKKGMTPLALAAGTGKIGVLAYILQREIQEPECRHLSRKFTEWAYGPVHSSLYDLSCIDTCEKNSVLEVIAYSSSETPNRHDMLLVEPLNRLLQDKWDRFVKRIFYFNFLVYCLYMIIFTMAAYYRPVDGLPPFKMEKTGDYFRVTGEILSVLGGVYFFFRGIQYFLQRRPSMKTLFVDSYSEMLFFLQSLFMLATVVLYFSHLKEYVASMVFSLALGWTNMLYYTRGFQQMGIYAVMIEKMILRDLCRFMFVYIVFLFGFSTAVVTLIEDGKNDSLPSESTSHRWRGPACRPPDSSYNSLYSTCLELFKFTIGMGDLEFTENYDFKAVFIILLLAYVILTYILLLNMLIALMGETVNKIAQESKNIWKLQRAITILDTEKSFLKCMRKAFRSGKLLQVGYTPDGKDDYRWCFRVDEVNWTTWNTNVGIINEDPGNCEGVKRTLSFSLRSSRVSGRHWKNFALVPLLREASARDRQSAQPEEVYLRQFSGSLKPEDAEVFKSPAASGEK
Sequence of rat-species vanilloid receptor 1 (VR1/TRPV1) (O35433 whole entry): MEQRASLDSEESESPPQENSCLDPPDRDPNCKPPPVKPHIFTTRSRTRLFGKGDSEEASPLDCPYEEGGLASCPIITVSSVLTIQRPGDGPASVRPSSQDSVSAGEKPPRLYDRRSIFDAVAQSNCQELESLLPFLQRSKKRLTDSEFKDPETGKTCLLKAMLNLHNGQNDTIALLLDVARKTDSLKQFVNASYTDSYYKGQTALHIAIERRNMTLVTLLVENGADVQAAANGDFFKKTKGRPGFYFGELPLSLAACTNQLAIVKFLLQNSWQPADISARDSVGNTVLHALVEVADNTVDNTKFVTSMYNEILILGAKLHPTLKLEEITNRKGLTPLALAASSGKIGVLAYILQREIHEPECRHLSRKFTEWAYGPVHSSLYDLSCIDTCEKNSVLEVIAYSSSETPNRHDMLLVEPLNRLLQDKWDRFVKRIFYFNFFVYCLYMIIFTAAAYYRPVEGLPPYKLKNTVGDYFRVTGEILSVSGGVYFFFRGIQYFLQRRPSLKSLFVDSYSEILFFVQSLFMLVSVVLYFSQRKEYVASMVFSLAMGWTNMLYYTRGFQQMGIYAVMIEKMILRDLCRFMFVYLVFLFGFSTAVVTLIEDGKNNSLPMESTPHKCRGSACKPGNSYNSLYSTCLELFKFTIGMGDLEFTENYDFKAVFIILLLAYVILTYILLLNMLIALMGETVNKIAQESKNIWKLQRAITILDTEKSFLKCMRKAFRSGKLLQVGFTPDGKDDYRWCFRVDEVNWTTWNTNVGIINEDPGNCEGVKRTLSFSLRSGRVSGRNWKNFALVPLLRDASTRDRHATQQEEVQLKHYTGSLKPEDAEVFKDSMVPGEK

SMILES | Ki (hVR1 [2]) [nM] | inhibition at 10 µM (hVR1 [1]) [%] | IC50 (hVR1 [3]) [nM] | Ki [4] [nM] | IC50 (hVR1 [1]) [nM] | also measured
CC(C(=O)NCc1cc(C(C)(C)C)nn1-c1cccc(Cl)c1)c1ccc(NS(C)(=O)=O)c(F)c1 (stereo not shown) [Example 16, N-((3-tert-butyl-1-(3-chlorophenyl)-1H-pyrazol-5-yl)methyl)-2-(3-fluoro-4-(methylsulphonamido)phenyl)propanamide] | 0.3 | – | – | – | – | IC50 (human being) hVR1 pH: result in words (NE / AG) (hVR1 [1]): NE; inhibition at 0.625 µM (hVR1 [3]; inhibition determined at 0.625 μM, read-out: IC50 (human being) 45° C. column: inhibition (as a percentage) @ 0.625 μM): 35%
C[C@H](C(=O)NCc1cc(C(F)(F)F)nn1-c1ccc(Cl)cc1)c1ccc(NS(C)(=O)=O)c(F)c1 [Example 23, (S)-N-((1-(4-chlorophenyl)-3-(trifluoromethyl)-1H-pyrazol-5-yl)methyl)-2-(3-fluoro-4-(methylsulphonamido)phenyl)propanamide] | 0.3 | – | 16.1 | 0.4 | 47.1 | –
CC(C(=O)NCc1cc(C(F)(F)F)nn1-c1cccc(Cl)c1)c1ccc(C(F)(F)F)c(F)c1 (stereo not shown) [Example 141, N-((1-(3-chlorophenyl)-3-(trifluoromethyl)-1H-pyrazol-5-yl)methyl)-2-(3-fluoro-4-(trifluoromethyl)phenyl)propanamide] | 13.6 | – | – | 25.5 | – | inhibition at 2.5 µM (hVR1 [3]; inhibition determined at 2.5 μM, read-out: IC50 (human being) 45° C. column: inhibition (as a percentage) @ 2.5 μM): 28%
COc1cc(C(C)C(=O)NCc2cc(C(F)(F)F)nn2-c2cccc(Cl)c2)ccc1NS(C)(=O)=O (stereo not shown) [Example 28, N-((1-(3-chlorophenyl)-3-(trifluoromethyl)-1H-pyrazol-5-yl)methyl)-2-(3-methoxy-4-(methylsulphonamido)phenyl)propanamide] | 0.4 | – | 665 | – | 16 | –
CC(C(=O)NCc1cc(C(C)(C)C)nn1-c1cccc(Cl)c1)c1cc(F)c(NS(C)(=O)=O)c(F)c1 (stereo not shown) [Example 29, N-((3-tert-butyl-1-(3-chlorophenyl)-1H-pyrazol-5-yl)methyl)-2-(3,5-difluoro-4-(methylsulphonamido)phenyl)propanamide] | 1.2 | 42 | – | – | – | inhibition at 2 µM (hVR1 [3]; read-out: IC50 (human being) 45° C. column: inhibition (as a percentage) @ 2 μM, inhibition determined at 2 μM): 34%
CC(C(=O)NCc1cc(C(C)(C)C)nn1-c1cccc(Cl)c1)c1ccc(S(=O)(=O)N(C)C)c(F)c1 (stereo not shown) [Example 49, N-((3-tert-butyl-1-(3-chlorophenyl)-1H-pyrazol-5-yl)methyl)-2-(4-(N,N-dimethylsulphamoyl)-3-fluorophenyl)propanamide] | – | – | – | – | – | Ki (human being) NADA column: result in words (AG) (hVR1 [5]): AG; IC50 (human being) hVR1 pH: result in words (NE / AG) (hVR1 [1]): AG; Ki (human being) Cap: result in words (NE / AG) (hVR1 [2]; capsaicin): AG; IC50 (human being) 45° C. column: result in words (AG) (hVR1 [3]): AG

Further compounds by falling Ki (hVR1 [2]), results first:

Ki (hVR1 [2]) [nM] | inhibition at 10 µM (hVR1 [1]) [%] | IC50 (hVR1 [3]) [nM] | Ki [4] [nM] | IC50 (hVR1 [1]) [nM] | SMILES | also measured
50.2 | 36 | 282 | – | – | CCCCCCn1nc(C(C)(C)C)cc1CNC(=O)C(C)c1ccc(NS(C)(=O)=O)c(F)c1 (stereo not shown) [Example 5, N-((3-tert-butyl-1-hexyl-1H-pyrazol-5-yl)methyl)-2-(3-fluoro-4-(methylsulphonamido)phenyl)propanamide] | inhibition at 1 µM ([4]; read-out: Ki (rat) Cap column: inhibition (as a percentage) @ 1 μM, capsaicin, inhibition determined at 1 μM): 76%
0.5 | 31 | 7 | – | – | CC(C(=O)NCc1cc(C(C)(C)C)nn1-c1ccc(F)c(Cl)c1)c1ccc(NS(C)(=O)=O)c(F)c1 (stereo not shown) [Example 18, N-((3-tert-butyl-1-(3-chloro-4-fluorophenyl)-1H-pyrazol-5-yl)methyl)-2-(3-fluoro-4-(methylsulphonamido)phenyl)propanamide] | –
0.3 | – | 27 | 1.2 | 179 | CC(C(=O)NCc1cc(C(F)(F)F)nn1-c1ccc(Cl)cc1)c1ccc(NS(C)(=O)=O)c(F)c1 (stereo not shown) [Example 21, N-((1-(4-chlorophenyl)-3-(trifluoromethyl)-1H-pyrazol-5-yl)methyl)-2-(3-fluoro-4-(methylsulphonamido)phenyl)propanamide] | –
